Results reported in patent US20210230134A1, “VITAMIN E DERIVATIVES AND THEIR USE AS MULTI-SCALE IMAGING AGENTS” (EXACT DELIVERY INC., priority 2018, published 2021).

Tests used:
C2C12 mouse myoblasts = test: MTT tetrazolium reduction viability assay, C2C12 myoblasts; type: cell-based; conditions: 24 h; for viability (formazan absorbance at 570 nm, MTT): 1 nM to 1 mM, vs 0.1% DMSO vehicle
Description: (§1) C2C12 mouse myoblasts and mouse embryonic fibroblasts (MEFs) were cultured in DMEM supplemented with 10% (v/v) FBS, 4500 mg/L glucose, 4 mM L-glutamine, 1 mM sodium pyruvate, 2% (v/v) MEM nonessential amino acid solution, and penicillin (50 I.U./mL)/streptomycin (50 μg/mL) solution (complete media). Cells were cultured in a humidified 5% CO2 atmosphere within a Thermo Forma Series II water-jacketed CO2 incubator maintained at 37° C. Cells were transferred to fresh 96- or 6-well plates (2,000 cells/well & 60,000 cells/well, respectively) in the evening prior to commencing tocopherol treatments.
(§2) Each tocopherol was dissolved in sterile 100% DMSO to yield a 1 M stock solution. Less concentrated stock solutions were subsequently prepared using ten-fold serial dilutions. All tocopherol solutions were stored at −20° C. To treat cultured cells, media was replaced with complete media containing freshly-added tocopherol; the final amount of vehicle (DMSO) for all concentrations tested was 0.1% (v/v).
(§3) Media was discarded, wells were washed once with phenol red-free complete culture media, and 100 μL/well phenol red-free complete culture media containing 0.45 mg/mL MTT was added. Two hours later, solubilization solution [40% (v/v) dimethylformamide, 2% (v/v) glacial acetic acid, 16% (w/v) sodium dodecyl sulfate, pH 4.7] was added (100 μL/well) and well contents were gently mixed by re-suspension to dissolve the formazan precipitate. Plates were incubated at room temperature in darkness for 2 h before recording absorbance at 570 nm using a Bio-Tek PowerWave Microplate UV-Vis spectrophotometer (Winooski, Vt., USA). For each plate, background signal averaged from cell-free wells containing vehicle treatments was subtracted
as §3, with “subtracted.” for “subtracted”

[1] = target: T1, α-TTP (α-tocopherol transfer protein) (Homo sapiens, UniProt P49638); test: Competitive displacement of TBtoc from pre-incubated complex with α-TTP; type: binding; conditions: 0.4 μM TBtoc pre-incubated with 0.4 μM α-TTP; competitor in dioxane; TKE buffer
T1 sequence (P49638 1-278): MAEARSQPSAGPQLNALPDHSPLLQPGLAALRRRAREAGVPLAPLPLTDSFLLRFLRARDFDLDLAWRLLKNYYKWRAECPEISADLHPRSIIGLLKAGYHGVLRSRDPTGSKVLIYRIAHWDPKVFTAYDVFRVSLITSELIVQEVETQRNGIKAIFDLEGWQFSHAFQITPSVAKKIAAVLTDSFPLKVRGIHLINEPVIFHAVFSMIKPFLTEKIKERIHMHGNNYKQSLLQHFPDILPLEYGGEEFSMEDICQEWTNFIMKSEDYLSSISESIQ
Description: When α-TTP is pre-incubated with TBtoc, competitive assays are possible by the incremental addition of a specific ligand such as natural α-tocopherol. Cholesterol served as a negative control (FIG. 5). About 57% of the bound fluorescence could be competed of α-TTP by α-tocopherol, whereas only about 8% was lost with cholesterol.

[2] = test system: mouse embryonic fibroblasts (MEFs); test: MTT tetrazolium reduction viability assay, MEFs; type: cell-based; conditions: 24 h; for viability (formazan absorbance at 570 nm, MTT): 1 nM to 1 mM, vs 0.1% DMSO vehicle
Description: as §1, §2, §3
as §3, with “subtracted.” for “subtracted”

Cc1c(C)c2c(c(C)c1O)CC[C@@](C)(CCC[C@H](C)CCC[C@H](C)CCCC(C)C)O2 [α-tocopherol, reference compound]
viability (formazan absorbance at 570 nm, MTT) (C2C12 mouse myoblasts): no sensitivity
bound fluorescence competed off α-TTP [1]: About 57%
viability (formazan absorbance at 570 nm, MTT) [2]: no sensitivity

CC(C)CCC[C@@H](C)[C@H]1CC[C@H]2[C@@H]3CC=C4C[C@@H](O)CC[C@]4(C)[C@H]3CC[C@]12C [cholesterol]
bound fluorescence competed off α-TTP [1]: about 8%

Cc1c(C)c2c(c(C)c1[19F])CC[C@@](C)(CCC[C@H](C)CCC[C@H](C)CCCC(C)C)O2 [F-Toc]
viability (formazan absorbance at 570 nm, MTT) (C2C12 mouse myoblasts): no sensitivity
cytotoxic concentration (no cytotoxicity up to stated concentration) (C2C12 mouse myoblasts; MTT): > 1 mM
viability (formazan absorbance at 570 nm, MTT) [2]: no sensitivity
cytotoxic concentration (no cytotoxicity up to stated concentration) ([2]; MTT): > 1 mM

Cc1c(C)c2c(c(C)c1I)CC[C@@](C)(CCCC(C)CCCC(C)CCCC(C)C)O2 (stereo partly drawn) [I-Toc, (2R)-6-iodo-2,5,7,8-tetramethyl-2-(4.8.12-trimethyl-tridecyl)-chroman]
viability (formazan absorbance at 570 nm, MTT) (C2C12 mouse myoblasts): no negative sensitivity
viability (formazan absorbance at 570 nm, MTT) [2]: no negative sensitivity
